Values belong to the compound of their own block, whether it stands above or below them.
What was measured:
RAGE tail = RAGE tail (Homo sapiens (Human), UniProt Q15109); test: RAGE tail fluorescence titration (Kd determination); settings: binding to RAGE tail
Method: Binding affinities of small molecules for either CT-RAGE or FH1 are determined by performing fluorescence titrations to generate binding isotherms and standard SPR experiments.
A number of representative amino and amido compounds of this invention were or can be tested for their inhibitory activity.
(§1) Fluorescence quenching was used to determine binding.
A number of representative heterocylic compounds of this invention were or can be tested for their inhibitory activity.
as §1, §1

[1] = test system: primary murine aortic smooth muscle cells; test: Murine smooth muscle cell migration (scratch wound, CML AGE); assay type: cell-based, C57BL/6 mice; settings: 1 μM pre-treatment 1.5 hours, CML AGE 100 μg/ml, 7 hrs
Method: Effects of CB-1 to CB-14 on Murine Smooth Muscle Cell Migration. Primary murine aortic smooth muscles retrieved from wild type C57BL/6 mice were grown to 90% confluency in medium containing 10% fetal bovine serum. Cells were serum starved for 16 hrs during which time fetal bovine serum was replaced with 0.1% bovine serum albumin. Following this period of serum starvation, cells were pre-treated for 1.5 hours with the indicated Chembridge library hit denoted #1-14 at a concentration of 1 μM. At the end of that time, compounds were removed and cell monolayers were vertically scratched with a pipet tip to create a “wound” and then RAGE ligand carboxy methyl lysine human serum albumin (CML AGE), 100 μg/ml, was added for 7 hrs. Photographs of the monolayer were taken at time 0 (time of scratch/CML AGE) and at 7 hrs. The ingrowth of the cells was then noted and % area ingrowth was calculated comparing ingrowth at baseline to that at 7 hrs. N=triplicate experiments. * indicates p<0.05

[2] = test system: primary human aortic smooth muscle cells; test: Human smooth muscle cell migration (scratch wound, CML AGE); assay type: cell-based; settings: 1 μM pre-treatment 1.5 hours, CML AGE 100 μg/ml, 7 hrs
Method: Effects of CB-1 to CB-14 on Human Smooth Muscle Cell Migration. Primary human aortic smooth muscles were purchased from Lonza and were grown to 90% confluency in medium containing 10% fetal bovine serum. Cells were serum starved for 16 hrs during which time fetal bovine serum was replaced with 0.1% bovine serum albumin. Following this period of serum starvation, cells were pre-treated for 1.5 hours with the indicated Chembridge library hit denoted #1-14 at a concentration of 1 μM. At the end of that time, compounds were removed and cell monolayers were vertically scratched with a pipet tip to create a “wound” and then RAGE ligand carboxy methyl lysine human serum albumin (CML AGE), 100 μg/ml, was added for 7 hrs. Photographs of the monolayer were taken at time 0 (time of scratch/CML AGE) and at 7 hrs. The ingrowth of the cells was then noted and % area ingrowth was calculated comparing ingrowth at baseline to that at 7 hrs. N=triplicate experiments. * indicates p<0.05 (FIG. 8)

[3] = test system: delayed type hypersensitivity (DTH) mediated inflammation in mice; test: In vivo model of delayed type hypersensitivity (DTH), paw inflammation score; design: species or system CF-1 mice; settings: 5 mg/kg intraperitoneal, four doses; for Inflammation Score Compound ± SEM: paw scored 16 hrs after mBSA, scale 1-5, n=5 mice/group; for reduction in inflammation score in the paw compared to vehicle: vs DMSO vehicle
Method: Effects of CB Compounds 1-14 on an in vivo model of delayed type hypersensitivity (DTH). Female CF-1 mice were purchased from the Jackson Laboratories (Bar Harbor Me.) and after a period of at least 3 days acclimation in the animal facility, mice were sensitized over the left inguinal lymph node with an emulsion (0.1 ml) containing methylated bovine serum albumin (mBSA, Sigma, 25 mg/ml), NaCl (0.9%), dextran 5-40×10^6 MW; 50 mg/ml (Sigma), and Freunds' incomplete adjuvant (50%). On day 19 and 20 after sensitization, mice received an intraperitoneal dose of one of CB compounds 1-14 at 5 mg/kg/body weight mouse for a total of four doses. Control animals received equal volumes of compound diluent, DMSO. Immediately following the final compound injection (4th dose), mBSA (0.4 mg/ml; 0.050 ml) was injected into the left plantar hind paw. The paw was scored 16 hrs later by 2 investigators naive to the experimental condition and according to the following criteria: 1=absence of any inflammation; 2=slight rubor and edema; 3=moderate rubor and edema with skin wrinkles; 4=severe rubor and edema without skin wrinkles and 5=severe rubor and edema with toe spreading. See also Hofmann et al. (1999, Cell 97:889-901), the entire content of which is incorporated herein in its entirety. In these experiments, n=5 mice/group.

[4] = target: RAGE tail (ctRAGE) binding to mDial (Homo sapiens (Human), UniProt Q15109); test: Primary screen: binding of GFP RAGE tail to mDial at one concentration (10 uM); settings: 10 μM compound
Chain of RAGE tail (ctRAGE) binding to mDial (Q15109 364-404): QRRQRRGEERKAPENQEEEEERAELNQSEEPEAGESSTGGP
Method: Primary screening was a two-step process in which compounds were first tested in a high throughput assay at one concentration (10 uM). Compounds that reduced binding of RAGE tail (ctRAGE) by at least 50% were then selected and subjected to 4-point dose response (10 uM, 1 uM, 0.1 uM and 0.01 uM) (FIGS. 1, 4, and 5).
Step 1. Add 50 μl anti-mDial (1:160 dilution in 0.1M NaHCO3 pH 9.6)/well. Incubate overnight at 4° C.
Step 2. Use the plate washer to aspirate anti-mDial and wash plates 4× with PBS 100 μl per well per wash.
Step 3. Add 180 μl 3% BSA in 1×PBS. Incubate for 1.5 hrs at room temperature
Step 4. Use the plate washer to aspirate the blocking solution and wash 5× with PBS 300 μl per well.
Step 5. Add 50 μl of mDial containing lysate (85 μg) and incubate at RT for 3 hours.
Step 6. Aspirate the lysate and wash the plate 5× (100 μl) on the plate washer.
Step 7. Add 25 μl PBS to the wells.
Step 8. Add 0.5 μL compound per well.
Step 9. Add 24.5 μL GFP RAGE tail (125 nM) into each well for 2 hrs at room temperature.
Step 10. Aspirate and wash 5× with PBS (100 μL) on the plate washer.
Step 11. Add 100 ul PBS in each well.
Step 12. Detection: Read on fluorescence plate reader excitation 435 nm and 485 nm emission
Compounds that blocked the binding of RAGE tail to mDial by 50% or more were subjected to 4 point dose response: 10 μM, 1 μM, 0.1 μM and 0.01 μM.

Chain of RAGE tail (Q15109 364-404): as above

SMILES: COc1cc(SC)ccc1C(=O)Nc1cccc(C)n1 [CB-1]
Kd (RAGE tail): 4 ± 1 nM | RAGE ligand CML AGE-mediated ingrowth (migration) [1]: no inhibitory effect | RAGE ligand CML AGE-mediated ingrowth (migration) [2]: no inhibitory effect | Inflammation Score Compound ± SEM [3]: 3.4 ± 0.55/3.4 ± 0.55

SMILES: C=CCOc1ccc2c(C(F)(F)F)cc(=O)oc2c1 [CB-2]
Kd (RAGE tail): 6.5 ± 1 nM | RAGE ligand CML AGE-mediated ingrowth (migration) [1]: prevent RAGE ligand CML AGE-mediated ingrowth (migration) | RAGE ligand CML AGE-mediated ingrowth (migration) [2]: prevent RAGE ligand CML AGE-mediated ingrowth (migration) | Inflammation Score Compound ± SEM [3]: 3.2 ± 0.45/3.4 ± 0.55

SMILES: Oc1cccc(Nc2nc(-c3ccc(F)cc3F)cs2)c1 [CB-5]
RAGE ligand CML AGE-mediated ingrowth (migration) [1]: prevent RAGE ligand CML AGE-mediated ingrowth (migration) | RAGE ligand CML AGE-mediated ingrowth (migration) [2]: prevent RAGE ligand CML AGE-mediated ingrowth (migration) | Inflammation Score Compound ± SEM [3]: 3.6 ± 0.55/3.4 ± 0.55

SMILES: COc1cc(NC(C)=O)c(Cl)cc1C(=O)Nc1nccs1 [CB-6]
RAGE ligand CML AGE-mediated ingrowth (migration) [1]: prevent RAGE ligand CML AGE-mediated ingrowth (migration) | RAGE ligand CML AGE-mediated ingrowth (migration) [2]: prevent RAGE ligand CML AGE-mediated ingrowth (migration) | Inflammation Score Compound ± SEM [3]: 3.0 ± 0.71/3.6 ± 0.55

SMILES: COc1ccccc1-c1cc(C(F)(F)F)nc(N2CCOCC2)n1 [CB-7]
Kd (RAGE tail): 0.55 ± 0.05 nM | RAGE ligand CML AGE-mediated ingrowth (migration) [1]: prevent RAGE ligand CML AGE-mediated ingrowth (migration) | RAGE ligand CML AGE-mediated ingrowth (migration) [2]: prevent RAGE ligand CML AGE-mediated ingrowth (migration) | Inflammation Score Compound ± SEM [3]: 3.4 ± 0.55/3.6 ± 0.55

SMILES: COC(=O)c1cc(OC)c(OC)cc1NC(=O)C1Oc2ccccc2OC1C (stereo not shown) [CB-8]
Kd (RAGE tail): 2 ± 0.5 nM | RAGE ligand CML AGE-mediated ingrowth (migration) [1]: prevent RAGE ligand CML AGE-mediated ingrowth (migration) | RAGE ligand CML AGE-mediated ingrowth (migration) [2]: prevent RAGE ligand CML AGE-mediated ingrowth (migration) | Inflammation Score Compound ± SEM [3]: 3.4 ± 0.55/3.6 ± 0.55

SMILES: Cc1ccc(S(=O)(=O)N(C)C(F)F)cc1 [CB-9]
Kd (RAGE tail): 17300 ± 500 nM | RAGE ligand CML AGE-mediated ingrowth (migration) [1]: prevent RAGE ligand CML AGE-mediated ingrowth (migration) | RAGE ligand CML AGE-mediated ingrowth (migration) [2]: prevent RAGE ligand CML AGE-mediated ingrowth (migration) | Inflammation Score Compound ± SEM [3]: 3.6 ± 0.55/3.6 ± 0.55

SMILES: CC1=NN(c2nc3ccccc3[nH]2)C(=O)C1CCC(C)C (stereo not shown) [CB-10]
RAGE ligand CML AGE-mediated ingrowth (migration) [1]: prevent RAGE ligand CML AGE-mediated ingrowth (migration) | RAGE ligand CML AGE-mediated ingrowth (migration) [2]: prevent RAGE ligand CML AGE-mediated ingrowth (migration) | Inflammation Score Compound ± SEM [3]: 3.2 ± 0.84/3.6 ± 0.55

SMILES: Cc1cc2n(c1)CCn1c(C)ccc1-2 [CB-11]
Kd (RAGE tail): 1.2 ± 0.5 nM | RAGE ligand CML AGE-mediated ingrowth (migration) [1]: prevent RAGE ligand CML AGE-mediated ingrowth (migration) | RAGE ligand CML AGE-mediated ingrowth (migration) [2]: prevent RAGE ligand CML AGE-mediated ingrowth (migration) | Inflammation Score Compound ± SEM [3]: 3.2 ± 0.45/3.4 ± 0.55

SMILES: CC(=O)Nc1ccc(C(=O)Nc2nccs2)cc1 [CD-1]
inhibition at 10 µM [4]: 31%

SMILES: O=C(O)COc1ccc2c(C(F)(F)F)cc(=O)oc2c1 [CD-12]
inhibition at 10 µM [4]: 11%

SMILES: COc1ccccc1-c1cc(C(F)(F)F)nc(NC2CCCCC2)n1 [CD-21]
inhibition at 10 µM [4]: 18%

Second part, led by results:

Kd (RAGE tail): 18 ± 1 nM
SMILES: Cc1nc2ccccc2n1CC(O)Cn1c2ccccc2c2ccccc21 (stereo not shown) [CB-3]
RAGE ligand CML AGE-mediated ingrowth (migration) [1]: prevent RAGE ligand CML AGE-mediated ingrowth (migration) | RAGE ligand CML AGE-mediated ingrowth (migration) [2]: prevent RAGE ligand CML AGE-mediated ingrowth (migration) | Inflammation Score Compound ± SEM [3]: 2.2 ± 0.45/3.4 ± 0.55 | reduction in inflammation score in the paw compared to vehicle [3]: statistically significant reduction in inflammation score

Kd (RAGE tail): 2 ± 1 nM
SMILES: OC(Cn1ccc2ccccc21)Cn1cnc2ccccc21 (stereo not shown) [CB-4]
RAGE ligand CML AGE-mediated ingrowth (migration) [1]: prevent RAGE ligand CML AGE-mediated ingrowth (migration) | RAGE ligand CML AGE-mediated ingrowth (migration) [2]: prevent RAGE ligand CML AGE-mediated ingrowth (migration) | Inflammation Score Compound ± SEM [3]: 3.0 ± 0.71/3.4 ± 0.55

Kd (RAGE tail): > 100000 nM
SMILES: COC(=O)c1cc(-c2ccc(NC(C)=O)cc2)nc2ccccc12 [CB-12]
RAGE ligand CML AGE-mediated ingrowth (migration) [1]: prevent RAGE ligand CML AGE-mediated ingrowth (migration) | RAGE ligand CML AGE-mediated ingrowth (migration) [2]: prevent RAGE ligand CML AGE-mediated ingrowth (migration) | Inflammation Score Compound ± SEM [3]: 2.4 ± 0.55/3.4 ± 0.55 | reduction in inflammation score in the paw compared to vehicle [3]: statistically significant reduction in inflammation score

Kd (RAGE tail): 123 ± 1 nM
SMILES: Cc1c(Cl)cccc1NC(=O)CNC(=O)c1ccccc1F [CB-13]
RAGE ligand CML AGE-mediated ingrowth (migration) [1]: prevent RAGE ligand CML AGE-mediated ingrowth (migration) | RAGE ligand CML AGE-mediated ingrowth (migration) [2]: prevent RAGE ligand CML AGE-mediated ingrowth (migration) | Inflammation Score Compound ± SEM [3]: 3.4 ± 0.55/3.4 ± 0.55

Kd (RAGE tail): 1.4 ± 0.3 nM
SMILES: Oc1ccc(NCc2ccc(Br)cc2)cc1 [CB-14]
RAGE ligand CML AGE-mediated ingrowth (migration) [1]: prevent RAGE ligand CML AGE-mediated ingrowth (migration) | RAGE ligand CML AGE-mediated ingrowth (migration) [2]: prevent RAGE ligand CML AGE-mediated ingrowth (migration) | Inflammation Score Compound ± SEM [3]: 3.2 ± 0.45/3.4 ± 0.55

Kd (RAGE tail): 75 nM
SMILES: OC(Cn1ccnc1)Cn1c2ccccc2c2ccccc21 (stereo not shown) [CD-4]

Kd (RAGE tail): 4 nM
SMILES: Cn1c(=O)n(CC(O)Cn2c3ccccc3c3ccccc32)c2ccccc21 (stereo not shown) [CD-6]

inhibition at 10 µM [4]: 31%
SMILES: CN(Cc1ccccc1)CC(O)Cn1cnc2ccccc21 (stereo not shown) [CD-7]

inhibition at 10 µM [4]: 27%
SMILES: N#Cc1ccc(OCC(O)Cn2cnc3ccccc32)cc1 (stereo not shown) [CD-8]

inhibition at 10 µM [4]: 26%
SMILES: OC(COCc1ccccc1)Cn1cnc2ccccc21 (stereo not shown) [CD-14]

inhibition at 10 µM [4]: 69%
SMILES: OC(COc1cccc2ccccc12)Cn1cnc2ccccc21 (stereo not shown) [CD-16]

inhibition at 10 µM [4]: 45%
SMILES: OC(CN(c1ccccc1)c1ccccc1)Cn1cnc2ccccc21 (stereo not shown) [CD-18]

inhibition at 10 µM [4]: 24%
SMILES: O=C(O)c1ccccc1OCC(O)Cn1cnc2ccccc21 (stereo not shown) [CD-19]

inhibition at 10 µM [4]: 48%
SMILES: CC1=NN(c2nc3ccccc3s2)C(=O)C1CCC(C)C (stereo not shown) [CD-20]

inhibition at 10 µM [4]: 37%
SMILES: OC(COc1ccccc1)Cn1cnc2ccccc21 (stereo not shown) [CD-28]

Kd (RAGE tail): 78 nM
SMILES: Cc1nccn1CC(O)Cn1c2ccccc2c2ccccc21 (stereo not shown) [CD-29]

inhibition at 10 µM [4]: 42%
SMILES: COc1ccccc1-c1cc(C(F)(F)F)nc(N2CCN(c3ccccc3OC)CC2)n1 [CD-42]

From patent US10729695B2, “Amino, amido and heterocyclic compounds as modulators of RAGE activity and uses thereof” (The Research Foundation for the State University of New York, priority 2013, dated 2020)
